Several values for one entry are separate records, joined by “and”; a condition that tells them apart may be missing. Identical values can stand only once. Entries after “also recorded” stand apart in the source; their conditions may differ. Like-named read-outs stand apart in the source and are kept apart here.
Tests used:
[1] = system: BALB/c recipient mice transplanted with skin grafts from B10.D2 donors; test: Skin graft rejection, B10.D2→BALB/c model; type: in vivo, mouse
Protocol: (§1) Mice were kept in separate cages and inspected daily.
(§2) The transplanted mice or rats were treated daily with Copolymer 1 at doses of 0.6-2.5 mg/day for mice and 25 mg/day for rats in PBS solution, starting 7 or 14 days before transplantation. In some cases, the first Cop 1 treatment was injected sc in ICFA as a depot dose.
To test the effect of Copolymer 1 treatment on skin graft rejection in the B10.D2→BALB/c model, BALB/c recipient mice were transplanted with skin grafts from B10.D2 donors and were treated daily with: PBS ip from day −7, Copolymer 1 (ip+sc) from day −7. Grafts were inspected daily.
Grafts were inspected daily. […] Thyroid glands from B10.D2 donors were transplanted in the kidney's capsules of BALB/c mice.

B10PL→PL/J thyroid graft = test: Thyroid rejection (I125 absorbance), B10PL→PL/J; type: in vivo, mouse; details: Cop 1
Protocol: (§3) In this transplantation model for HVG, thyroid glands from donor mice were transplanted in the kidney's capsules of recipient mice. One week later the transplanted mice were injected with ^125I, and the radioactivity of each kidney (the recipient or the untransplanted kidney) was measured after 20 hours. Δcpm was calculated by subtracting the ^125I absorbance of the untransplanted kidneys from the ^125I absorbance of the recipient kidneys in the same treatment. The mean function index (MFI) for treatment was calculated by dividing the mean Δcpm for the tested treatment by the mean Δcpm for the PBS treatment. P values were obtained by the ANOVA test. This assay indicates objectively and quantitatively not only the graft survival, but also the function (iodine absorbance) of the transplanted thyroid tissue (Isakov et al., 1979).
as §2

C57BL→C3H thyroid graft = test: Thyroid rejection (I125 absorbance), C57BL→C3H (H-2b); type: in vivo, mouse; details: Cop 1
Protocol: as §3, §2

[2] = system: BALB/c recipient mice transplanted with skin grafts from C57BL donors; details: for prolongation of skin graft survival / mean survival time (MST) of skin graft: FIG. 3 experiment
Protocol: BALB/c mice were transplanted with skin grafts from C57BL/6 donors. […] Grafts were considered rejected when no viable donor epidermis remained. At least 7 mice were tested in each group.
Skin transplantation is an established model to measure immune rejection. In this model recipient and donor mice were anesthetized, shaved and cleaned. Circular pieces of skin (1.0 to 1.3 cm in diameter) were cut from dorsal side of the donor mice and dorsally transplanted to recipient animals by the use of histoacryl (Braun, Melsungen, Germany). The grafts were covered with Nobecutane antiseptic spray bandage (Astra, Wedel, Germany). Mice were kept in separate cages and inspected daily. Grafts were considered rejected when no viable donor epidermis remained.
Three murine strain combinations: B10.D2→BALB/c in the H-2^d haplotype, C57BL→C3HSW in the H-2^b haplotype, and B10PL→PL/J in the H-2^u haplotype, were tested across minor histocompatibility barriers, and across major histocompatibility barriers transplantation was tested in C57BL→BALB/c in the H-2^b→H-2^d haplotype. These strain combinations were tested with Copolymer 1 both using skin and thyroid transplantations.
BALB/c recipient mice were transplanted with skin grafts originated in C57BL donors in day 0. GA (100 mg/kg, s.c.) was injected daily starting 2 weeks before transplantation. […] Rejection was considered positive when no viable donor epidermis remained.

B10PL→PL/J skin graft = test: Skin graft rejection, B10PL→PL/J (H-2u); type: in vivo, mouse; details: Cop 1
Protocol: as §1, §2

[3] = system: Lewis rats transplanted with an accessory heart from allogeneic disparate BN donor rats; type: in vivo
Text: Lewis rats were transplanted with an accessory heart from the allogeneic disparate BN donor rats. […] Combination of pretreatment with GA and the respective doses of the immunosuppressants (open bars); Treatment with GA administered from the day of transplantation without pretreatment (striped bar). Cardiac allograft survival was inspected by daily monitoring palpation of the grafts. Grafts were considered rejected when no heart palpitations could be observed.

C57BL→C3HSW skin graft = test: Skin graft rejection, C57BL→C3HSW (H-2b); type: in vivo, mouse; details: Cop 1
Protocol: as §1, §2

[4] = system: thyroid glands from B10.D2 donors transplanted in the kidney's capsules of BALB/c mice; test: Function of transplanted thyroids (I125 absorbance), B10.D2→BALB/c model; type: in vivo, mouse; details: for MFI (mean function index): fold over PBS
Protocol: as §3, §2
To test the effect of Copolymer 1 treatment on the function of transplanted thyroids in the B10.D2→BALB/c model, thyroid glands from donors B10.D2 were transplanted in the kidney's capsules of BALB/c mice. After one week the transplanted mice were injected with I^125, and the radioactivity of each kidney was measured 20 hours later. A cpm was calculated by subtracting the I^125 absorbance of the untransplanted kidneys from the I^125 absorbance of the recipient kidneys in the same treatment. The mean function index (MFI) for each treatment was calculated by dividing the mean I^125 absorbance of (transplanted kidney—untransplanted kidney) in the tested treatment by the mean I^125 absorbance of (transplanted kidney—untransplanted kidney) in the PBS treatment, as follows: [formula]

[5] = system: thyroid glands from C57BL mice transplanted in the kidney capsule of BALB/c mice; test: Function of transplanted thyroids (I125 absorbance), C57BL→BALB/c model; type: in vivo, mouse
Protocol: as §3
BALB/c recipient mice were transplanted in the kidney's capsules with thyroid glands from donor mice in day 0. Grafts were inspected daily. The function (iodine absorbance) of the transplanted thyroid tissue was examined 10 days after transplantation by measuring the iodine absorbance in the kidney.
Thyroid glands from C57BL mice were transplanted in the kidney capsule of BALB/c mice. Nine days after transplantation, mice were injected with 1 μcI^125, and the radioactivity of each kidney was measured 20 hr. later. MFI—denotes the mean function index, calculated as
MFI=mean Δcpm for the tested treatment/mean Δcpm for the PBS tested treatment

[6] = Cop 1 600 μg/day ip from day −7
[7] = Cop 1, another experiment (N=5)
[8] = Cop 1 2.5 mg/mouse, Table 7 Part 1
[9] = Cop 1 2.5 mg/mouse, Table 7 Part 2
[10] = Cop 1, C57BL → BALB (H-2b → H-2d), Table 5
[11] = FK 506 300 μg/day ip, 7 times from day −2

Compound: glatiramer acetate [Cop 1]
- MST (Mean Survival Time) of skin graft ([1]; Cop 1 300 μg/day ip+sc daily from day −7): 20.4 ± 4.5 days
- MST (Mean Survival Time) of skin graft ([1]; Cop 1 300 μg/day ip+sc daily from day −7, listed as Copolymer 1): 20.4 days
- MST (Mean Survival Time) of skin graft ([1]; Cop 1 600 μg/day ip+sc daily from day −7): 20.6 days and 20.6 ± 3.3 days
- MST (Mean Survival Time) of skin graft ([1]; Cop 1 600 μg/day ip+sc daily from day −7, listed as Copolymer 1): 20.6 days
- MFI (mean function index) (B10PL→PL/J thyroid graft): 2.5
- Mean I^125 Absorption, Transplanted Kidney (B10PL→PL/J thyroid graft): 2009 cpm
- Δcpm (B10PL→PL/J thyroid graft): 1677 cpm
- MFI (mean function index) (C57BL→C3H thyroid graft): 2.3
- Mean I^125 Absorption, Transplanted Kidney (C57BL→C3H thyroid graft): 1643 cpm
- Δcpm (C57BL→C3H thyroid graft): 1362 cpm
- MST (Mean Survival Time) of skin graft ([2]; Cop 1, listed as printed C57BL→C3HSW (H-2b → H-2d)): 18.5 ± 3.3
- prolongation of skin graft survival ([2]; GA 100 mg/kg): 27%
- mean survival time (MST) of skin graft ([2]; GA 100 mg/kg, untreated control 8.5 days): 10.8 days
- Prolongation ([2]; GA 100 mg/kg alone, Table 6A): 10%
- MST (Mean Graft Survival Time) ([2]; GA 100 mg/kg alone, Table 6B): 11.5 days
- Prolongation ([2]; GA 100 mg/kg alone, Table 6B): 11%
- appearance of mice ([2]; GA 100 mg/kg injected daily): looked completely healthy
- MST (Mean Graft Survival Time) ([2]; GA 100 mg/kg s.c. daily from 2 weeks before transplantation, alone, Table 6A): 12.3 days
- MST (Mean Survival Time) of skin graft (B10PL→PL/J skin graft): 17.6 ± 5.1
- Prolongation ([3]; GA 100 mg/kg alone, vs untreated control): 0.4 days
- MST (Mean Graft Survival Time) of heart graft ([3]; GA 100 mg/kg daily from 2 weeks before transplantation, alone): 7.6 ± 0.5 days
- effect on heart graft survival ([3]; GA treatment by itself): did not prolong graft survival
- MST (Mean Survival Time) of skin graft (C57BL→C3HSW skin graft): 17.7 ± 2.1
- Mean I^125 Absorption, Transplanted Kidney [4, 6]: 2901 cpm
- Δcpm (transplanted minus untransplanted kidney) [4, 6]: 2451 cpm
- MFI (mean function index) ([4]; Cop 1 600 ug/day, another experiment (N=5)): 5.2
- MFI (mean function index) ([4]; Cop 1 600 μg/day): 3.2
- Mean I^125 Absorption, Transplanted Kidney [4, 7]: 1035 cpm
- Δcpm [4, 7]: 898 cpm
- MFI [5, 8]: 3.5
- Mean I^125 Absorbance, Transplanted kidney [5, 8]: 439 ± 31 cpm
- Δcpm [5, 8]: 122 cpm
- MFI [5, 9]: 2.4
- Mean I^125 Absorbance, Transplanted kidney [5, 9]: 671 ± 24 cpm
- Δcpm [5, 9]: 247 cpm
- MFI (mean function index) [5, 10]: 3.0
- Mean I^125 Absorption, Transplanted Kidney [5, 10]: 10759 cpm
- Δcpm [5, 10]: 9835 cpm

Compound: C=CC[C@@H]1/C=C(\C)C[C@H](C)C[C@H](OC)[C@H]2O[C@@](O)(C(=O)C(=O)N3CCCC[C@H]3C(=O)O[C@H](/C(C)=C/[C@@H]3CC[C@@H](O)[C@H](OC)C3)[C@H](C)[C@@H](O)CC1=O)[C@H](C)C[C@@H]2OC [FK 506, tacrolimus]
- MST (Mean Survival Time) of skin graft ([1]; FK506 300 μg/day ip, 7 injections from day −2): 21.2 days
- MST (Mean Survival Time) of skin graft ([1]; FK506 300 μg/day ip, 7 injections from day −2, listed as FK506): 21.2 ± 4.3 days
- mean survival time (MST) of skin graft ([2]; FK 506 5 mg/kg): 9.5 days
- prolongation of skin graft survival ([2]; FK 506 5 mg/kg): 12%
- mean survival time (MST) of skin graft ([2]; FK 506 10 mg/kg): 13.8 days
- prolongation of skin graft survival ([2]; FK 506 10 mg/kg): 88%
- Prolongation ([2]; FK 506 1.25 mg/kg alone): 8%
- MST (Mean Graft Survival Time) ([2]; FK 506 1.25 mg/kg i.m. daily from 6 days before transplantation, alone): 11.2 days
- MST (Mean Graft Survival Time) ([2]; FK 506 2.5 mg/kg alone): 11.8 days
- Prolongation ([2]; FK 506 2.5 mg/kg alone): 13%
- MST (Mean Graft Survival Time) ([2]; FK 506 5.0 mg/kg alone): 12.7 days
- Prolongation ([2]; FK 506 5.0 mg/kg alone): 22%
- MST (Mean Graft Survival Time) ([2]; FK 506 10 mg/kg alone): 16.0 days
- Prolongation ([2]; FK 506 10 mg/kg alone): 54%
- mortality ([2]; higher dose, FK 506 10 mg/kg, average): 20 % of the mice
- toxic effect on the mice ([2]; mouse, in vivo, 10 mg/kg): considerable weight loss and weakness
- Prolongation ([3]; FK 506 1.25 mg/kg alone): 15.3 days
- MST (Mean Graft Survival Time) of heart graft ([3]; FK 506 1.25 mg/kg daily from 6 days before transplantation, alone, 1.25 mg/kg): 22.5 days and 22.5 ± 0.9 days
- Prolongation ([3]; FK 506 2.5 mg/kg alone): 18.3 days
- MST (Mean Graft Survival Time) of heart graft ([3]; FK 506 2.5 mg/kg alone, 2.5 mg/kg): 25.5 days and 25.5 ± 1.4 days
- toxicity in rats ([3]; FK 506 2.5 mg/kg, 2.5 mg/kg): toxic consequences
- death of rats after number of daily injections ([3]; FK506 5 mg/kg): 6-8 daily injections
- toxicity in rats ([3]; FK 506 5.0 mg/kg, 5 mg/kg): toxic consequences; also recorded: toxic all rats died
- Mean I^125 Absorption, Transplanted Kidney [4, 11]: 3117 cpm
- Δcpm (transplanted minus untransplanted kidney) [4, 11]: 2424 cpm
- MFI (mean function index) ([4]; FK 506 300 μg/day): 3.1
- MFI ([5]; FK506 1.25 mg/kg): 3.1
- Mean I^125 Absorbance, Transplanted kidney ([5]; FK506 1.25 mg/kg): 928 ± 165 cpm
- Δcpm ([5]; FK506 1.25 mg/kg): 327 cpm
- MFI ([5]; FK506 2.5 mg/kg): 4.1
- Mean I^125 Absorbance, Transplanted kidney ([5]; FK506 2.5 mg/kg): 772 ± 519 cpm
- Δcpm ([5]; FK506 2.5 mg/kg): 431 cpm
- MFI ([5]; FK506 5 mg/kg): 3.7
- Mean I^125 Absorbance, Transplanted kidney ([5]; FK506 5 mg/kg): 1167 ± 636 cpm
- Δcpm ([5]; FK506 5 mg/kg): 383 cpm

Reference: patent US20060276390A1, “Combined treatments comprising synthetic peptide copolymers for preventing graft rejection” (YEDA RESEARCH AND DEVELOPMENT CO. LTD., priority 2003, published 2006)
